Experimental data reported in PubChem BioAssay (NCI).
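How tested: cells in 96-well plates exposed to compound for 48 hours at five concentrations. Here, GI50 denotes the concentration required for 50% inhibition of growth. At the TGI there is no net growth.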

Key:
Assay in all cases: growth of human tumour cells (NCI), 48 h
COLO 205 colon = tested on: COLO 205 colon
MOLT-4 leukemia = tested on: MOLT-4 leukemia
NCI-H23 lung = tested on: NCI-H23 lung
SW-620 colon = tested on: SW-620 colon
T-47D breast = tested on: T-47D breast
NCI/ADR-RES ovarian = tested on: NCI/ADR-RES ovarian
K-562 leukemia = tested on: K-562 leukemia
LOX IMVI melanoma = tested on: LOX IMVI melanoma
SF-295 CNS = tested on: SF-295 CNS
HT29 colon = tested on: HT29 colon

SMILES: COc1cc2c(cc1OCCCN1CCN(CCCOc3cc4c(cc3OC)C(=O)N3CCC[C@H]3C=N4)CC1)C=CC(C)(C)O2
- GI50 (COLO 205 colon): 1.21 µM
- TGI (COLO 205 colon): 2.61 µM
- GI50 (MOLT-4 leukemia): 0.249 µM
- TGI (MOLT-4 leukemia): 0.765 µM
- GI50 (NCI-H23 lung): 1.53 µM
- TGI (NCI-H23 lung): 3.04 µM
- GI50 (SW-620 colon): 0.634 µM
- TGI (SW-620 colon): 1.93 µM
- GI50 (T-47D breast): 0.792 µM
- TGI (T-47D breast): 2.43 µM
- GI50 (NCI/ADR-RES ovarian): 2.41 µM
- TGI (NCI/ADR-RES ovarian): 5.31 µM
- GI50 (K-562 leukemia): 0.32 µM
- TGI (K-562 leukemia): 1.03 µM
- GI50 (LOX IMVI melanoma): 0.755 µM
- TGI (LOX IMVI melanoma): 2.09 µM

SMILES: C[N+]1(C)CCCC1C(=O)[O-] (stereo unspecified)
- TGI (SF-295 CNS): > 100 µM
- TGI (HT29 colon): > 100 µM
- TGI (COLO 205 colon): > 100 µM
- TGI (MOLT-4 leukemia): > 100 µM
- TGI (NCI-H23 lung): > 100 µM
- TGI (SW-620 colon): > 100 µM
- TGI (K-562 leukemia): > 100 µM
- TGI (LOX IMVI melanoma): > 100 µM

SMILES: FC(F)(F)c1ccc(-c2nc(-c3nc4cc(Cl)c(Cl)cc4[nH]3)c3ccccn23)cc1
- GI50 (SF-295 CNS): 3.9 µM
- TGI (SF-295 CNS): > 100 µM
- GI50 (COLO 205 colon): > 100 µM
- TGI (COLO 205 colon): > 100 µM
- GI50 (MOLT-4 leukemia): > 100 µM
- TGI (MOLT-4 leukemia): > 100 µM
- GI50 (NCI-H23 lung): 6.57 µM
- TGI (NCI-H23 lung): > 100 µM
- GI50 (SW-620 colon): > 100 µM
- TGI (SW-620 colon): > 100 µM
- GI50 (T-47D breast): 4.06 µM
- TGI (T-47D breast): > 100 µM
- GI50 (NCI/ADR-RES ovarian): 6.1 µM
- TGI (NCI/ADR-RES ovarian): > 100 µM
- GI50 (K-562 leukemia): > 100 µM
- TGI (K-562 leukemia): > 100 µM

SMILES: COC(=O)[C@H](Cc1ccccc1)NC(=O)c1ccc(CNC(=O)/C=C/c2ccc(-c3ccccc3)cc2)cc1
- TGI (SF-295 CNS): 94.5 µM
- TGI (HT29 colon): > 100 µM
- TGI (COLO 205 colon): > 100 µM
- TGI (MOLT-4 leukemia): > 100 µM
- TGI (NCI-H23 lung): > 100 µM
- TGI (SW-620 colon): > 100 µM
- TGI (T-47D breast): > 100 µM
- TGI (NCI/ADR-RES ovarian): > 100 µM
- TGI (K-562 leukemia): > 100 µM

SMILES: COc1ccc(-c2nc(N)c(C#N)c3c2CCS(=O)(=O)c2ccc(C)cc2-3)cc1OC
- TGI (HT29 colon): 92.2 µM
- TGI (COLO 205 colon): 79.5 µM
- TGI (NCI-H23 lung): > 100 µM
- TGI (SW-620 colon): > 100 µM
- TGI (T-47D breast): > 100 µM
- TGI (NCI/ADR-RES ovarian): > 100 µM
- TGI (K-562 leukemia): 29.4 µM
- TGI (LOX IMVI melanoma): > 100 µM

SMILES: COC(=O)C(=O)C(C(=O)Nc1cccc(C)c1C)C1Sc2ccccc2NC1=O (stereo unspecified)
- TGI (SF-295 CNS): > 25 µM
- TGI (HT29 colon): > 25 µM
- TGI (COLO 205 colon): > 25 µM
- TGI (MOLT-4 leukemia): > 25 µM
- TGI (NCI-H23 lung): > 25 µM
- TGI (SW-620 colon): > 25 µM
- TGI (K-562 leukemia): > 25 µM
- TGI (LOX IMVI melanoma): > 25 µM

SMILES: c1csc(-c2ccc(-c3ccc(-c4ccc(-c5cccs5)s4)s3)s2)c1
- TGI (SF-295 CNS): > 100 µM
- TGI (HT29 colon): > 100 µM
- TGI (COLO 205 colon): > 100 µM
- TGI (MOLT-4 leukemia): > 100 µM
- TGI (NCI-H23 lung): > 100 µM
- TGI (SW-620 colon): > 100 µM
- TGI (NCI/ADR-RES ovarian): > 100 µM
- TGI (K-562 leukemia): > 100 µM

SMILES: C=C1C(=O)OC2/C=C(\C)C(OC(C)=O)C3OC3C(C)(O)CC(OC(=O)/C(C)=C/C)C12 (stereo unspecified)
- TGI (SF-295 CNS): 42.4 µM
- TGI (HT29 colon): 32.7 µM
- TGI (COLO 205 colon): 12.9 µM
- TGI (MOLT-4 leukemia): 85.6 µM
- TGI (NCI-H23 lung): 34.4 µM
- TGI (SW-620 colon): 1.89 µM
- TGI (K-562 leukemia): 18.9 µM
- TGI (LOX IMVI melanoma): 30.4 µM

SMILES: O=c1c2ccccc2oc2nc3n(c(=O)c12)CCCS3
- TGI (SF-295 CNS): > 100 µM
- TGI (COLO 205 colon): > 100 µM
- TGI (MOLT-4 leukemia): > 100 µM
- TGI (NCI-H23 lung): > 100 µM
- TGI (SW-620 colon): > 100 µM
- TGI (T-47D breast): > 100 µM
- TGI (NCI/ADR-RES ovarian): > 100 µM
- TGI (K-562 leukemia): > 100 µM
- TGI (LOX IMVI melanoma): > 100 µM

SMILES: Nc1nc(N)c2ncn(CC3CCC(CO)C3)c2n1 (stereo unspecified)
- TGI (SF-295 CNS): > 100 µM
- TGI (COLO 205 colon): > 100 µM
- TGI (MOLT-4 leukemia): > 100 µM
- TGI (SW-620 colon): > 100 µM
- TGI (T-47D breast): > 100 µM
- TGI (NCI/ADR-RES ovarian): > 100 µM
- TGI (K-562 leukemia): > 100 µM
- TGI (LOX IMVI melanoma): > 100 µM

SMILES: CCC(C)[C@H](NC(=O)[C@H](Cc1ccccc1)NC(=O)N(CC)c1ccccc1)C(=O)N[C@@H](CC(C)C)C(=O)OC (stereo partly specified)
- TGI (SF-295 CNS): > 100 µM
- TGI (COLO 205 colon): > 100 µM
- TGI (MOLT-4 leukemia): 39.7 µM
- TGI (NCI-H23 lung): > 100 µM
- TGI (SW-620 colon): > 100 µM
- TGI (T-47D breast): > 100 µM
- TGI (NCI/ADR-RES ovarian): > 100 µM
- TGI (LOX IMVI melanoma): > 100 µM
